Measured values reported in PubChem BioAssay (NCI).
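Assay format: 96-well plates, 48-hour exposure. Here, GI50 denotes the concentration required for 50% inhibition of growth. At the TGI there is no net growth.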

What was measured:
Assay in all cases: NCI-60 cell line screen, 48 h
OVCAR-8 ovarian = system: OVCAR-8 ovarian
HCC-2998 colon = system: HCC-2998 colon
EKVX NSCLC = system: EKVX NSCLC
MALME-3M melanoma = system: MALME-3M melanoma
CCRF-CEM leukemia = system: CCRF-CEM leukemia
UO-31 renal = system: UO-31 renal
A549 NSCLC = system: A549 NSCLC
KM12 colon = system: KM12 colon
HOP-92 NSCLC = system: HOP-92 NSCLC
HCT-15 colon = system: HCT-15 colon
SF-295 CNS = system: SF-295 CNS
786-0 renal = system: 786-0 renal
UACC-257 melanoma = system: UACC-257 melanoma
MDA-MB-231 breast = system: MDA-MB-231 breast
T-47D breast = system: T-47D breast
HOP-62 NSCLC = system: HOP-62 NSCLC
HCT-116 colon = system: HCT-116 colon
NCI-H23 lung = system: NCI-H23 lung
MDA-MB-435 = system: MDA-MB-435
SW-620 colon = system: SW-620 colon
RPMI-8226 leukemia = system: RPMI-8226 leukemia
SNB-75 CNS = system: SNB-75 CNS
SNB-19 CNS = system: SNB-19 CNS
CAKI-1 renal = system: CAKI-1 renal
TK-10 renal = system: TK-10 renal
M14 melanoma = system: M14 melanoma
SR leukemia = system: SR leukemia
SK-OV-3 ovarian = system: SK-OV-3 ovarian
NCI-H522 lung = system: NCI-H522 lung
K-562 leukemia = system: K-562 leukemia
RXF 393 renal = system: RXF 393 renal
COLO 205 colon = system: COLO 205 colon
PC-3 prostate = system: PC-3 prostate
HS 578T breast = system: HS 578T breast
UACC-62 melanoma = system: UACC-62 melanoma
A498 renal = system: A498 renal
OVCAR-5 ovarian = system: OVCAR-5 ovarian
BT-549 breast = system: BT-549 breast
DU-145 prostate = system: DU-145 prostate
SF-268 CNS = system: SF-268 CNS
SK-MEL-5 melanoma = system: SK-MEL-5 melanoma
OVCAR-4 ovarian = system: OVCAR-4 ovarian
ACHN renal = system: ACHN renal
LOX IMVI melanoma = system: LOX IMVI melanoma
HL-60(TB) leukemia = system: HL-60(TB) leukemia
HT29 colon = system: HT29 colon
SF-539 CNS = system: SF-539 CNS
IGROV1 ovarian = system: IGROV1 ovarian
NCI/ADR-RES ovarian = system: NCI/ADR-RES ovarian
NCI-H460 lung = system: NCI-H460 lung
NCI-H226 lung = system: NCI-H226 lung
MDA-MB-468 breast = system: MDA-MB-468 breast
OVCAR-3 ovarian = system: OVCAR-3 ovarian
SK-MEL-28 melanoma = system: SK-MEL-28 melanoma
U251 CNS = system: U251 CNS
MOLT-4 leukemia = system: MOLT-4 leukemia
SN12C renal = system: SN12C renal
MCF7 breast = system: MCF7 breast
SK-MEL-2 melanoma = system: SK-MEL-2 melanoma

`CN1CCN(c2ccc(C(=O)/C=C/c3ccc(OC(F)F)cc3)cc2)CC1` showed a GI50 (OVCAR-8 ovarian) of 14.2 µM, a TGI (OVCAR-8 ovarian) of 27.8 µM and a GI50 (HCC-2998 colon) of 3.76 µM. It also gave a TGI (HCC-2998 colon) of 14 µM, a GI50 (EKVX NSCLC) of 13.1 µM and a TGI (EKVX NSCLC) of 25.8 µM. For the same compound, the GI50 (MALME-3M melanoma) was 13.1 µM, the TGI (MALME-3M melanoma) was 25.8 µM and the GI50 (CCRF-CEM leukemia) was 4.3 µM. It also gave a TGI (CCRF-CEM leukemia) of 37.7 µM, a GI50 (UO-31 renal) of 11 µM and a TGI (UO-31 renal) of 23 µM. For the same compound, the GI50 (A549 NSCLC) was 11.7 µM, the TGI (A549 NSCLC) was 25.8 µM and the GI50 (KM12 colon) was 5.2 µM. The TGI (KM12 colon) was 22.1 µM, the GI50 (HOP-92 NSCLC) was 6.21 µM and the TGI (HOP-92 NSCLC) was 20.9 µM. For the same compound, the GI50 (HCT-15 colon) was 6.88 µM, the TGI (HCT-15 colon) was 19.7 µM and the GI50 (SF-295 CNS) was 12.3 µM. For the same compound, the TGI (SF-295 CNS) was 24.7 µM, the GI50 (786-0 renal) was 15.3 µM and the TGI (786-0 renal) was 39.6 µM. It also gave a GI50 (UACC-257 melanoma) of 13.8 µM, a TGI (UACC-257 melanoma) of 27.2 µM and a GI50 (MDA-MB-231 breast) of 13.5 µM. It also gave a TGI (MDA-MB-231 breast) of 26.3 µM, a GI50 (T-47D breast) of 15.5 µM and a TGI (T-47D breast) of 38.4 µM. For the same compound, the GI50 (HOP-62 NSCLC) was 15.4 µM, the TGI (HOP-62 NSCLC) was 30.4 µM and the GI50 (HCT-116 colon) was 2.87 µM. The TGI (HCT-116 colon) was greater than 100 µM, the GI50 (NCI-H23 lung) was 11.8 µM and the TGI (NCI-H23 lung) was 24.3 µM. It also gave a GI50 (MDA-MB-435) of 3 µM, a TGI (MDA-MB-435) of 10.7 µM and a GI50 (SW-620 colon) of 4.98 µM. For the same compound, the TGI (SW-620 colon) was 18.5 µM, the GI50 (RPMI-8226 leukemia) was 2.6 µM and the TGI (RPMI-8226 leukemia) was 9.85 µM. The GI50 (SNB-75 CNS) was 4.85 µM, the TGI (SNB-75 CNS) was 20.3 µM and the GI50 (SNB-19 CNS) was 14.7 µM. It also gave a TGI (SNB-19 CNS) of 27.9 µM, a GI50 (CAKI-1 renal) of 13.9 µM and a TGI (CAKI-1 renal) of 27.2 µM. It also gave a GI50 (TK-10 renal) of 14.8 µM, a TGI (TK-10 renal) of 29.6 µM and a GI50 (M14 melanoma) of 12.3 µM. The TGI (M14 melanoma) was 38.6 µM, the GI50 (SR leukemia) was 1.96 µM and the TGI (SR leukemia) was greater than 100 µM. It also gave a GI50 (SK-OV-3 ovarian) of 13.9 µM, a TGI (SK-OV-3 ovarian) of 27.6 µM and a GI50 (NCI-H522 lung) of 15.4 µM. For the same compound, the TGI (NCI-H522 lung) was 32.3 µM, the GI50 (K-562 leukemia) was 2.8 µM and the TGI (K-562 leukemia) was greater than 100 µM. It also gave a GI50 (RXF 393 renal) of 4.34 µM, a TGI (RXF 393 renal) of 17.4 µM and a GI50 (COLO 205 colon) of 14.2 µM. It also gave a TGI (COLO 205 colon) of 30.9 µM, a GI50 (PC-3 prostate) of 10.3 µM and a TGI (PC-3 prostate) of 26.5 µM. It also gave a GI50 (HS 578T breast) of 14.9 µM, a TGI (HS 578T breast) of 46.2 µM and a GI50 (UACC-62 melanoma) of 14 µM. For the same compound, the TGI (UACC-62 melanoma) was 27 µM, the GI50 (A498 renal) was 14.2 µM and the TGI (A498 renal) was 27.8 µM. The GI50 (OVCAR-5 ovarian) was 14.8 µM, the TGI (OVCAR-5 ovarian) was 28.1 µM and the GI50 (BT-549 breast) was 13 µM. For the same compound, the TGI (BT-549 breast) was 29 µM, the GI50 (DU-145 prostate) was 13.6 µM and the TGI (DU-145 prostate) was 26.7 µM. It also gave a GI50 (SF-268 CNS) of 18 µM, a TGI (SF-268 CNS) of 41.3 µM and a GI50 (SK-MEL-5 melanoma) of 8.94 µM. The TGI (SK-MEL-5 melanoma) was 21.1 µM, the GI50 (OVCAR-4 ovarian) was 14.4 µM and the TGI (OVCAR-4 ovarian) was 33.8 µM. For the same compound, the GI50 (ACHN renal) was 14.8 µM, the TGI (ACHN renal) was 27.9 µM and the GI50 (LOX IMVI melanoma) was 3.53 µM. For the same compound, the TGI (LOX IMVI melanoma) was 13 µM, the GI50 (HL-60(TB) leukemia) was 4.7 µM and the TGI (HL-60(TB) leukemia) was 33.4 µM. For the same compound, the GI50 (HT29 colon) was 3.41 µM, the TGI (HT29 colon) was 15.3 µM and the GI50 (SF-539 CNS) was 12.3 µM. For the same compound, the TGI (SF-539 CNS) was 24.7 µM, the GI50 (IGROV1 ovarian) was 12.1 µM and the TGI (IGROV1 ovarian) was 25.2 µM. It also gave a GI50 (NCI/ADR-RES ovarian) of 13.9 µM, a TGI (NCI/ADR-RES ovarian) of 27.3 µM and a GI50 (NCI-H460 lung) of 14.4 µM. For the same compound, the TGI (NCI-H460 lung) was 30.1 µM, the GI50 (NCI-H226 lung) was 10.8 µM and the TGI (NCI-H226 lung) was 24.3 µM. For the same compound, the GI50 (MDA-MB-468 breast) was 3.52 µM, the TGI (MDA-MB-468 breast) was 14.5 µM and the GI50 (OVCAR-3 ovarian) was 12.1 µM. For the same compound, the TGI (OVCAR-3 ovarian) was 25.5 µM, the GI50 (SK-MEL-28 melanoma) was 15.3 µM and the TGI (SK-MEL-28 melanoma) was 28.6 µM. For the same compound, the GI50 (U251 CNS) was 9.79 µM, the TGI (U251 CNS) was 27.5 µM and the GI50 (MOLT-4 leukemia) was 11.6 µM. For the same compound, the TGI (MOLT-4 leukemia) was 54.9 µM, the GI50 (SN12C renal) was 13.5 µM and the TGI (SN12C renal) was 26.3 µM. The GI50 (MCF7 breast) was 2.74 µM, the TGI (MCF7 breast) was 11 µM and the GI50 (SK-MEL-2 melanoma) was 16.6 µM. It also gave a TGI (SK-MEL-2 melanoma) of 31.9 µM.
